# Data reported in ChEMBL document CHEMBL4152244, “Discovery of new erbB4 inhibitors: Repositioning an orphan chemical library by inverse virtual screening” (Eur J Med Chem, 2018).
# Calls of active or inactive are those of the source. The calls are words filed in the database; no cut-off is given here.
# Molecular target: T1, Receptor tyrosine-protein kinase erbB-4 (Homo sapiens, UniProt Q15303)
# Experiment: Inhibition of recombinant human N-terminal GST-His6-fused erbB4 expressed in Sf9 insect cells at 10 uM using poly (Glu, Tyr) 4:1 as substrate after 60 mins in presence of [gamma-33P]-ATP by microplate scintillation counting method relative to control
# Details: not given
# T1 sequence (Q15303 whole entry, the tested form may be a part): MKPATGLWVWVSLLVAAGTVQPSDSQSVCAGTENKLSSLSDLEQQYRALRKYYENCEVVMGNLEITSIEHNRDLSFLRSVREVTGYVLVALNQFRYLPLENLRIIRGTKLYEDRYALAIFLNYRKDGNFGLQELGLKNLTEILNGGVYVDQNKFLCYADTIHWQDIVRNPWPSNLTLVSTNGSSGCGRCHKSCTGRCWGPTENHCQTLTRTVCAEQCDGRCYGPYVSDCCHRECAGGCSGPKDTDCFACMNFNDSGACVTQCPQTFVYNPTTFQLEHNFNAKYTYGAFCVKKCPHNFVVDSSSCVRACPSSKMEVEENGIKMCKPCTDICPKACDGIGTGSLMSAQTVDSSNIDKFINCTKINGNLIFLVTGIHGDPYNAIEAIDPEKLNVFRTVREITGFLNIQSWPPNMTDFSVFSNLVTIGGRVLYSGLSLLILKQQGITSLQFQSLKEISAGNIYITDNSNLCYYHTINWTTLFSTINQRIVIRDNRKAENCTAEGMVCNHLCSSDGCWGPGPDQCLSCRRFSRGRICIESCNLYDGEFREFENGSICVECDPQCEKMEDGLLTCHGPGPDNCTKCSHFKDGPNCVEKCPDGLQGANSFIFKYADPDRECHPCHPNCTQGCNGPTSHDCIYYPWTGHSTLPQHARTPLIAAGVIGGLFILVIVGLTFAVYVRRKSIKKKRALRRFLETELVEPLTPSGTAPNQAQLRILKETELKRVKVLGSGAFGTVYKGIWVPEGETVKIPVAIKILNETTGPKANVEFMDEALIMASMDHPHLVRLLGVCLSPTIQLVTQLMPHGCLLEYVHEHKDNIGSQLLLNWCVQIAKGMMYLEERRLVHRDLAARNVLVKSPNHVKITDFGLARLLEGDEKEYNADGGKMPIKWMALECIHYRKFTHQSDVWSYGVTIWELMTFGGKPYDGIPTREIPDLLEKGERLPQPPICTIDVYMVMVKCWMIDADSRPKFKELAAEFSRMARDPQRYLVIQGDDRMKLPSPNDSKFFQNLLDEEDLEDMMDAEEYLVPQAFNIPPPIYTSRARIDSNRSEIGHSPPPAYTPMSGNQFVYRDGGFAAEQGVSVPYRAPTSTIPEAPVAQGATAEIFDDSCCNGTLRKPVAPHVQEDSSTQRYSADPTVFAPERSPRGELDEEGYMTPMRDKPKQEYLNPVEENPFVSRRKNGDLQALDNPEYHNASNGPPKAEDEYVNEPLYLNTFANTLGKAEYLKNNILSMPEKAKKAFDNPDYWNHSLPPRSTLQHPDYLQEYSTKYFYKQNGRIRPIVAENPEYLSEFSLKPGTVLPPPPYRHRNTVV
row,Compound,inhibition [%]
1,O=S(=O)(NCCc1cccc(F)c1)c1cc(-c2ccc(COc3cccc(C(F)(F)F)c3)cc2)cc(C(F)(F)F)c1,67.9
2,O=S(=O)(NCCc1cccc(F)c1)c1cc(-c2cccc(S(=O)(=O)N3CCCC3)c2)cc(C(F)(F)F)c1,34.3
3,O=S(=O)(NCCc1cccc(F)c1)c1cc(-c2cccc3c2oc2ccccc23)cc(C(F)(F)F)c1,50.5
4,COc1ccc(F)cc1-c1cc(C(F)(F)F)cc(S(=O)(=O)NCCc2cccc(F)c2)c1,19.1
5,O=S(=O)(NCCc1cccc(F)c1)c1cc(-c2cccnc2)cc(C(F)(F)F)c1,15.7
6,COc1ncc(-c2cc(C(F)(F)F)cc(S(=O)(=O)NCCc3cccc(F)c3)c2)c(OC)n1,10.3
7,O=S(=O)(NCCc1cccc(F)c1)c1cc(-c2cc3ccccc3[nH]2)cc(C(F)(F)F)c1,4.6
8,COCCc1ccc(OCc2ccc(-c3cc(C(F)(F)F)cc(S(=O)(=O)NCCc4cccc(F)c4)c3)cc2)cc1,67.7
9,O=S(=O)(NCCc1cccc(F)c1)c1cc(-c2ccc(-c3cccs3)s2)cc(C(F)(F)F)c1,57
10,O=S(=O)(NCCc1cccc(F)c1)c1cc(-c2ccc(F)nc2)cc(C(F)(F)F)c1,7.5
11,O=Cc1ccc(-c2cc(C(F)(F)F)cc(S(=O)(=O)NCCc3cccc(F)c3)c2)s1,22.2
12,COC(=O)c1ccc(-c2cc(C(F)(F)F)cc(S(=O)(=O)NCCc3cccc(F)c3)c2)cn1,15.8
13,Cc1noc(C)c1-c1cc(C(F)(F)F)cc(S(=O)(=O)NCCc2cccc(F)c2)c1,9
14,O=S(=O)(NCCc1cccc(F)c1)c1cc(-c2ccnc(F)c2)cc(C(F)(F)F)c1,18.4
15,COc1cc(-c2cc(C(F)(F)F)cc(S(=O)(=O)NCCc3cccc(F)c3)c2)ccc1F,12.8
16,O=S(=O)(NCCc1cccc(F)c1)c1cc(-c2cccc3c2Sc2ccccc2S3)cc(C(F)(F)F)c1,57.9
17,O=S(=O)(NCCc1cccc(F)c1)c1cc(-c2ccc(COc3cccc4ccccc34)cc2)cc(C(F)(F)F)c1,49
18,COc1cc(-c2cc(C(F)(F)F)cc(S(=O)(=O)NCCc3cccc(F)c3)c2)c(OC)nn1,14.9
19,O=S(=O)(NCCc1cccc(F)c1)c1cc(-c2ccccc2COc2cccc(C(F)(F)F)c2)cc(C(F)(F)F)c1,63.1

# Molecular target: T2, 3-phosphoinositide-dependent protein kinase 1 (Homo sapiens) (UniProt O15530)
# T2 sequence (whole entry): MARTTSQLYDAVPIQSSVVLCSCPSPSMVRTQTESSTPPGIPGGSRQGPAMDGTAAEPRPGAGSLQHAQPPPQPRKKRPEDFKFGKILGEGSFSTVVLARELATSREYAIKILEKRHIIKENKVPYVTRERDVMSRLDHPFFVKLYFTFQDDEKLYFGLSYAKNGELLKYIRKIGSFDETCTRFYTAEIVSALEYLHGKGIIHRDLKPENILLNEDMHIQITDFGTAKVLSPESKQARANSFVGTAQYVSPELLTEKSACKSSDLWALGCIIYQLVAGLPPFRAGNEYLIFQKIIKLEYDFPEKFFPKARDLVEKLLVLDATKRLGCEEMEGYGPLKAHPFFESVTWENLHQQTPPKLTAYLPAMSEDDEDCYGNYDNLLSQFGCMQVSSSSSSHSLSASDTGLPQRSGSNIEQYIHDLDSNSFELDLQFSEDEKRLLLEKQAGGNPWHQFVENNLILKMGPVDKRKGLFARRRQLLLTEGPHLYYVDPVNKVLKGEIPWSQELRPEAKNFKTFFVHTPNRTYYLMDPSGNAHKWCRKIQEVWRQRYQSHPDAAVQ
# Experiment: Inhibition of recombinant human N-terminal His6-fused pdk1 expressed in Sf9 insect cells at 10 uM using tetra (LRRWSLG) as substrate after 60 mins in presence of [gamma-33P]-ATP by microplate scintillation counting method relative to control
# Details: not given
row,Compound,inhibition [%]
1,O=S(=O)(NCCc1cccc(F)c1)c1cc(-c2ccc(COc3cccc(C(F)(F)F)c3)cc2)cc(C(F)(F)F)c1,50.8
2,O=S(=O)(NCCc1cccc(F)c1)c1cc(-c2cccc(S(=O)(=O)N3CCCC3)c2)cc(C(F)(F)F)c1,5.7
3,O=S(=O)(NCCc1cccc(F)c1)c1cc(-c2cccc3c2oc2ccccc23)cc(C(F)(F)F)c1,2.4
4,COc1ccc(F)cc1-c1cc(C(F)(F)F)cc(S(=O)(=O)NCCc2cccc(F)c2)c1,40.5
5,O=S(=O)(NCCc1cccc(F)c1)c1cc(-c2cc3ccccc3[nH]2)cc(C(F)(F)F)c1,52.2
6,COCCc1ccc(OCc2ccc(-c3cc(C(F)(F)F)cc(S(=O)(=O)NCCc4cccc(F)c4)c3)cc2)cc1,42.8
7,O=S(=O)(NCCc1cccc(F)c1)c1cc(-c2ccc(-c3cccs3)s2)cc(C(F)(F)F)c1,40.3
8,O=S(=O)(NCCc1cccc(F)c1)c1cc(-c2ccc(F)nc2)cc(C(F)(F)F)c1,10.3
9,O=Cc1ccc(-c2cc(C(F)(F)F)cc(S(=O)(=O)NCCc3cccc(F)c3)c2)s1,5.2
10,COc1cc(-c2cc(C(F)(F)F)cc(S(=O)(=O)NCCc3cccc(F)c3)c2)ccc1F,27.6
11,O=S(=O)(NCCc1cccc(F)c1)c1cc(-c2cccc3c2Sc2ccccc2S3)cc(C(F)(F)F)c1,35
12,O=S(=O)(NCCc1cccc(F)c1)c1cc(-c2ccc(COc3cccc4ccccc34)cc2)cc(C(F)(F)F)c1,35.6
13,O=S(=O)(NCCc1cccc(F)c1)c1cc(-c2ccccc2COc2cccc(C(F)(F)F)c2)cc(C(F)(F)F)c1,52.7

# Molecular target: T3, Ephrin type-A receptor 3 (Homo sapiens) (UniProt P29320)
# T3 sequence (whole entry): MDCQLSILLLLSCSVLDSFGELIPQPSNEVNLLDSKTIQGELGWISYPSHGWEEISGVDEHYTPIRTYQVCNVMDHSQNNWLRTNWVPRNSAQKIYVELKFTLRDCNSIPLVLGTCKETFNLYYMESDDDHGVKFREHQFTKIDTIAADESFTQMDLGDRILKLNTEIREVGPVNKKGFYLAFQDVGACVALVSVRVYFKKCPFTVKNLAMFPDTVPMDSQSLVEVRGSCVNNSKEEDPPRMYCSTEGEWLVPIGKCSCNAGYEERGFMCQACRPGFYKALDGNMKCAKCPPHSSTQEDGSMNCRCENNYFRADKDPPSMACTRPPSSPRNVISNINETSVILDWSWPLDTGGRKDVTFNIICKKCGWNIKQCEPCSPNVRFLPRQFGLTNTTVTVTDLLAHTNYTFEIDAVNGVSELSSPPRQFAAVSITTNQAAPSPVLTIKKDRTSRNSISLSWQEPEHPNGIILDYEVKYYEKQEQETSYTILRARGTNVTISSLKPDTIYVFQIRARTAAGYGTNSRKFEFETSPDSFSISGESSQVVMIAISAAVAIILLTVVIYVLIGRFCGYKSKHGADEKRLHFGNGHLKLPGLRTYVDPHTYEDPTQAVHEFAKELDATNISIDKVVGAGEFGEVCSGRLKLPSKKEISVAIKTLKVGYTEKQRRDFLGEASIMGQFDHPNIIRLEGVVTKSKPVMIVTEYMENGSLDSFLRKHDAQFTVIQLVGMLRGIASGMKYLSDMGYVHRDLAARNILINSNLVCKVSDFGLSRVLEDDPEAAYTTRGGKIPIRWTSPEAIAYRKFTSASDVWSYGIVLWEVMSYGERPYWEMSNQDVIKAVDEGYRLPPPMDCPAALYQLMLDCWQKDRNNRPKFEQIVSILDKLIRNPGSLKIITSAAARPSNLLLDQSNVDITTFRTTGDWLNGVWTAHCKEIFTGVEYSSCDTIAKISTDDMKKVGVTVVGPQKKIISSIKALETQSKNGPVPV
# Experiment: Inhibition of recombinant human N-terminal GST-His6-fused ephA3 expressed in Sf9 insect cells at 10 uM using poly (Glu, Tyr) 4:1 as substrate after 60 mins in presence of [gamma-33P]-ATP by microplate scintillation counting method relative to control
# Details: not given
row,Compound,inhibition [%]
1,O=S(=O)(NCCc1cccc(F)c1)c1cc(-c2ccc(COc3cccc(C(F)(F)F)c3)cc2)cc(C(F)(F)F)c1,28.5
2,O=S(=O)(NCCc1cccc(F)c1)c1cc(-c2cccc3c2oc2ccccc23)cc(C(F)(F)F)c1,11.1
3,O=S(=O)(NCCc1cccc(F)c1)c1cc(-c2cccnc2)cc(C(F)(F)F)c1,4.2
4,O=S(=O)(NCCc1cccc(F)c1)c1cc(-c2cc3ccccc3[nH]2)cc(C(F)(F)F)c1,22.7
5,COCCc1ccc(OCc2ccc(-c3cc(C(F)(F)F)cc(S(=O)(=O)NCCc4cccc(F)c4)c3)cc2)cc1,33.1
6,O=S(=O)(NCCc1cccc(F)c1)c1cc(-c2ccc(-c3cccs3)s2)cc(C(F)(F)F)c1,22
7,O=Cc1ccc(-c2cc(C(F)(F)F)cc(S(=O)(=O)NCCc3cccc(F)c3)c2)s1,7.8
8,O=S(=O)(NCCc1cccc(F)c1)c1cc(-c2ccnc(F)c2)cc(C(F)(F)F)c1,9.1
9,O=S(=O)(NCCc1cccc(F)c1)c1cc(-c2cccc3c2Sc2ccccc2S3)cc(C(F)(F)F)c1,32.8
10,O=S(=O)(NCCc1cccc(F)c1)c1cc(-c2ccc(COc3cccc4ccccc34)cc2)cc(C(F)(F)F)c1,30.1
11,O=S(=O)(NCCc1cccc(F)c1)c1cc(-c2ccccc2COc2cccc(C(F)(F)F)c2)cc(C(F)(F)F)c1,30.4

# Molecular target: T1, Receptor tyrosine-protein kinase erbB-4
# Experiment: Inhibition of recombinant human N-terminal GST-His6-fused erbB4 expressed in Sf9 insect cells using poly (Glu, Tyr) 4:1 as substrate after 60 mins in presence of [gamma-33P]-ATP by microplate scintillation counting method
# Details: not given
row,Compound,IC50 [µM]
1,O=S(=O)(NCCc1cccc(F)c1)c1cc(-c2ccc(COc3cccc(C(F)(F)F)c3)cc2)cc(C(F)(F)F)c1,5.06
2,COCCc1ccc(OCc2ccc(-c3cc(C(F)(F)F)cc(S(=O)(=O)NCCc4cccc(F)c4)c3)cc2)cc1,6.43
3,O=S(=O)(NCCc1cccc(F)c1)c1cc(-c2ccc(-c3cccs3)s2)cc(C(F)(F)F)c1,8.05
4,O=S(=O)(NCCc1cccc(F)c1)c1cc(-c2cccc3c2Sc2ccccc2S3)cc(C(F)(F)F)c1,6.4
5,O=S(=O)(NCCc1cccc(F)c1)c1cc(-c2ccccc2COc2cccc(C(F)(F)F)c2)cc(C(F)(F)F)c1,4.41

# Molecular target: Receptor tyrosine-protein kinase erbB-2 (Homo sapiens, UniProt P04626)
# Sequence (P04626 whole entry, the tested form may be a part): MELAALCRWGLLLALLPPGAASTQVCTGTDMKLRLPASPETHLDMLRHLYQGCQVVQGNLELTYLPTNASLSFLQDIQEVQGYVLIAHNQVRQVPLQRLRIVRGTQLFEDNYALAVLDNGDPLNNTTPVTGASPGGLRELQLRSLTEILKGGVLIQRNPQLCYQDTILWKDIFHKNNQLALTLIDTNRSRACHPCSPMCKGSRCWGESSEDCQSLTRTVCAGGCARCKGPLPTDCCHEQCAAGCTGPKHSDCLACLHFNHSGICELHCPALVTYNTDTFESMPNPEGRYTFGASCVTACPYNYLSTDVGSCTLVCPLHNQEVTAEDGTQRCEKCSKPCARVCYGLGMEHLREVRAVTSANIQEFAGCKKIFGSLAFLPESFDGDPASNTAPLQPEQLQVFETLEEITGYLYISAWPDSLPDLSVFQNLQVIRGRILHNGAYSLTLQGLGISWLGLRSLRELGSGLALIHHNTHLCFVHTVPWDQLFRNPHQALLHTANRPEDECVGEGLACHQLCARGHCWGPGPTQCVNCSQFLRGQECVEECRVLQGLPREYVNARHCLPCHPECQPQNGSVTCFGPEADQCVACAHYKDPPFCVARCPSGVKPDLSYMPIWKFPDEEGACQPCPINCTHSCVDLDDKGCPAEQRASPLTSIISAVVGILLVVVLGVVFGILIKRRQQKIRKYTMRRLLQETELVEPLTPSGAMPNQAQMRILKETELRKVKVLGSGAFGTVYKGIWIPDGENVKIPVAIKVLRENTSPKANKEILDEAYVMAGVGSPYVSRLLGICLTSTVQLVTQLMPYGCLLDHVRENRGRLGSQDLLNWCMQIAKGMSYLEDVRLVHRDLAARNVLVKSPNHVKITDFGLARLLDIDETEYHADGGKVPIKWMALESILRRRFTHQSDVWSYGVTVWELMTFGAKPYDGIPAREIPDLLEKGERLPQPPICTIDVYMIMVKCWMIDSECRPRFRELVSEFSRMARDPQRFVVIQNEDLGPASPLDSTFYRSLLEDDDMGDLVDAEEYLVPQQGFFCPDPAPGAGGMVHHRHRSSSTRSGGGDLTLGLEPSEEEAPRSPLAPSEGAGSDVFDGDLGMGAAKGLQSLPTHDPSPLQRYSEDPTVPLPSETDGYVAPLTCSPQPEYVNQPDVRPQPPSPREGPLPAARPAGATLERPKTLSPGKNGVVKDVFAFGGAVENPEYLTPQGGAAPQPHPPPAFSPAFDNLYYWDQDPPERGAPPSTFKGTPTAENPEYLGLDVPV
# Experiment: Inhibition of recombinant human N-terminal GST-His6-fused erbB2 expressed in Sf9 insect cells using poly (Glu, Tyr) 4:1 as substrate after 60 mins in presence of [gamma-33P]-ATP by microplate scintillation counting method
# Details: not given
row,Compound,IC50 [µM]
1,O=S(=O)(NCCc1cccc(F)c1)c1cc(-c2ccc(COc3cccc(C(F)(F)F)c3)cc2)cc(C(F)(F)F)c1,18
2,COCCc1ccc(OCc2ccc(-c3cc(C(F)(F)F)cc(S(=O)(=O)NCCc4cccc(F)c4)c3)cc2)cc1,25.4
3,O=S(=O)(NCCc1cccc(F)c1)c1cc(-c2ccc(-c3cccs3)s2)cc(C(F)(F)F)c1,31.5
4,O=S(=O)(NCCc1cccc(F)c1)c1cc(-c2cccc3c2Sc2ccccc2S3)cc(C(F)(F)F)c1,10.4
5,O=S(=O)(NCCc1cccc(F)c1)c1cc(-c2ccccc2COc2cccc(C(F)(F)F)c2)cc(C(F)(F)F)c1,9.71

# Tested on: MCF7
# Experiment: Cytotoxicity against human MCF7 cells after 24 hrs by MTT assay
# Format: functional, cell-based
# Details: MCF7, 24 h
row,Compound,IC50 [µM]
1,O=S(=O)(NCCc1cccc(F)c1)c1cc(-c2ccc(COc3cccc(C(F)(F)F)c3)cc2)cc(C(F)(F)F)c1,28.2
2,COCCc1ccc(OCc2ccc(-c3cc(C(F)(F)F)cc(S(=O)(=O)NCCc4cccc(F)c4)c3)cc2)cc1,45.1
3,O=S(=O)(NCCc1cccc(F)c1)c1cc(-c2ccc(-c3cccs3)s2)cc(C(F)(F)F)c1,9.09
4,O=S(=O)(NCCc1cccc(F)c1)c1cc(-c2cccc3c2Sc2ccccc2S3)cc(C(F)(F)F)c1,22.8
5,O=S(=O)(NCCc1cccc(F)c1)c1cc(-c2ccccc2COc2cccc(C(F)(F)F)c2)cc(C(F)(F)F)c1,44.2

# Tested on: MCF7
# Experiment: Cell cycle arrest in human MCF7 cells assessed as accumulation at G2/M phase at 1 uM after 24 hrs by propidium iodide staining-based flow cytometric method
# Format: functional
# Details: not given
row,Compound,Activity
1,O=S(=O)(NCCc1cccc(F)c1)c1cc(-c2ccc(-c3cccs3)s2)cc(C(F)(F)F)c1,Active

# Tested on: MCF7
# Experiment: Induction of cell death in human MCF7 cells assessed as appearance of sub-G0 hypodiploid nuclei at 1 uM after 24 hrs by propidium iodide staining-based flow cytometric method
# Format: functional
# Details: not given
row,Compound,Activity
1,O=S(=O)(NCCc1cccc(F)c1)c1cc(-c2ccc(-c3cccs3)s2)cc(C(F)(F)F)c1,inactive
